Where “and” joins values, the source holds several entries; their conditions need not be identical. Identical values can stand only once. Entries after “also recorded” stand apart in the source; their conditions may differ. Like-named read-outs stand apart in the source and are kept apart here.
Experiments:
[1] = biological target: T1, purified recombinant IDO1 (Homo sapiens, UniProt P14902); test: Enzymatic IDO1 inhibition assay (ascorbate/methylene blue reduction system, HPLC detection of kynurenine); type: biochemical; conditions: for IC50: enzymatic; for LE [kcal/mol/HA]: ligand efficiency, LE = -RT log(IC50)/number of heavy atoms, from enzymatic IC50
T1 construct: Full-length human IDO1 gene was cloned into the pET-28a vector; inferred from pET-28a vector and HisTrap purification; made in house; host or cells: E. coli Rosetta (DE3)

hIDO1 [2] = biological target: T2, hIDO1 (Homo sapiens, UniProt P14902); test: Cellular hIDO1 inhibition (kynurenine production) in transiently transfected HEK 293 T cells; type: cell-based
T2 construct: The full ORF of hIDO1 was cloned into the mammalian expression vector pcDNA6/myc-His; myc-His (vector-encoded); host or cells: HEK 293 T
Procedure: (§1) We tested the cellular hIDO1 inhibitory activity and toxicity of 30 active compounds at a single concentration (Figure 6 and Table 8). As some of the aniline derivatives reacted with Ehrlich’s reagent (p-dimethylaminobenzaldehyde, p-DMAB) used to quantify kynurenine, the kynurenine content of these samples was determined by HPLC. To be able to detect also weak inhibition, compounds were tested at the high concentration of 200 µM (Figure 6A and B, filled bars), except for less soluble compounds (52, 148, 149 and 153), which were tested at a concentration of 50 µM (Figure 6A and B, empty bars).
The cDNA encoding hIDO1 (NCBI, NM 0021464.3) was purchased from Origene as pCMV6-Entry vector (RC206592). The full ORF of hIDO1 was cloned into the mammalian expression vector pcDNA6/myc-His from Invitrogen. Human embryonic kidney 293 T (HEK 293 T) cells were transiently transfected with the plasmid construct encoding hIDO1. A 75 cm^2 flask containing HEK 293 T cells at a confluency of 70% was transfected with jetPEI DNA transfection reagent (Polyplus-transfection), according to manufacturer’s protocol. A total of 20 µg of pcDNA-IDO1 along with 5 µg of pcDNA-GFP plasmid were used for the transfection; GFP was used to evaluate transfection efficiency prior to the cellular assays. 16–18 h post-transfection the 293 T cells were detached with trypsin, centrifuged, and re-suspended in 25 mL of DMEM medium without phenol red, supplemented with penicillin and streptomycin, 10% foetal bovine serum and 1 mM pyruvate (Gibco). Subsequently, 100 µL of cells were distributed to each well of two 96-well round-bottom plates that had been pre-loaded with 100 µL DMEM and the small organic test molecule in DMSO (for a final DMSO concentration of 2%). DMEM medium contains 78 µM L-Trp and was supplemented with 500 µM of L-Trp. Cells transfected with hIDO1 were incubated for 7 h at 37 °C in a CO2 incubator. The reaction was stopped in its linear phase by adding trichloroacetic acid (TCA) to the medium at a final concentration of 4%. Plates were centrifuged for 15 min at 4,000 rpm. 100 µL of supernatant was added to 100 µL of 2% (w/v) DMAB in glacial acetic acid. After 10 min the absorbance was measured at a wavelength of 480 nm to detect kynurenine formation. Alternatively, kynurenine content was determined by HPLC as done for the enzymatic assay.

HEK 293 T cells [3] = test: Cell viability / cellular toxicity (DAPI staining, cytometry); type: cell-based, human; conditions: 7 h
Procedure: as §1
Following DMSO (negative control) or inhibitor treatments, apoptotic cells were detected by 4′,6-diamidino-2-phenylindole (DAPI) staining. Briefly, after 7 h of incubation, cells were washed with PBS, resuspended in PBS with 1 µg/mL DAPI and immediately analysed using a BD LSR II cytometer. A 405 nm laser with 450/50 nm bandpass filter was used to collect data.

hIDO1 [4] = biological target: T2, hIDO1; test: Cellular hIDO1 inhibition (kynurenine production) in transiently transfected HEK 293 T cells; type: cell-based; conditions: HEK 293 T cells transfected with hIDO1; read-out: Cell. IC50 [ μ M] (SD)
IDO1 = conditions: cited from earlier work
[5] = Compound solubility (qualitative remarks); type: physicochemical
hIDO1 [6] = biological target: T2, hIDO1; conditions: previously determined, cited from earlier work; for Inh. [%]: 200 µM
HEK 293 T cells [7] = conditions: previously determined, 200 µM, cited from earlier work
murine IDO2 = test system: murine IDO2; set-up: method as in PMID 27469130; conditions: murine IDO2, cellular; cited from earlier work
TDO = test system: TDO; set-up: method as in PMID 22616902; conditions: undetectable activity; cited from earlier work
[8] = L-Trp 100 µM, 0.01% Triton X-100, 5% DMSO, 20 min at room temperature, pH 6.5, duplicates, read-out: IC50 [ μ M] (SD)
[9] = values of Panda and co-workers, not reproduced here, read-out: published IC50 values
[10] = ref 3 of Supporting Information (Röhrig et al. 2016)
[11] = ref 3 of Supporting Information (= main text ref 62)
[12] = ref 1 of Supporting Information (Röhrig et al. 2021)

T2 sequence (P14902 whole entry): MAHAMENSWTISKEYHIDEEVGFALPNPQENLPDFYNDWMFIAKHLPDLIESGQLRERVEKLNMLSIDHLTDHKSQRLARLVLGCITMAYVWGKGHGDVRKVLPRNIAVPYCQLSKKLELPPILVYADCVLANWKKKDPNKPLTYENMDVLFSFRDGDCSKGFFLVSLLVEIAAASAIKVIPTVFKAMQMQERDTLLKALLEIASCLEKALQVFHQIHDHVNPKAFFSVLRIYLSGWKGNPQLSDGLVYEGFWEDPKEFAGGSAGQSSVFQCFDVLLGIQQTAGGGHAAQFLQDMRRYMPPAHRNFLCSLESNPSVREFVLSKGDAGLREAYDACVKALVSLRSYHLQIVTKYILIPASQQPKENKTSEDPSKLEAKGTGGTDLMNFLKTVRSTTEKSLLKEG
T1 sequence (P14902 whole entry): as above

For `Nc1cc(F)c(Br)cc1-c1nc[nH]n1` [Compound 144, 4-Bromo-5-fluoro-2-(1H-1,2,4-triazol-3-yl)aniline], the IC50 [1, 8] was 0.034 µM, the IC50 ([1]; read-out: enzymatic IC50) was 0.034 µM and the “LE [kcal/mol/HA]” value [1] was 0.73 kcal/mol/HA. For the same compound, the inhibition at 200 µM (hIDO1 [2]) was 100%, the “Tox. [%]” value (HEK 293 T cells [3]; compound 200 µM) was 17 (2) % and the melting point was 243 to 246 °C. The IC50 (hIDO1 [4]) was 34 nM.

In the case of `Clc1cccc(-c2nn[nH]c2-c2cccc(Cl)c2)c1` [Compound 64, 4,5-Bis(3-chlorophenyl)-1,2,3-triazole, reference compound], the IC50 [1, 8] is listed as > 50 µM and the IC50 (IDO1; [9]) is listed as 2510 nM.

For `Nc1ccc(F)cc1-c1nc[nH]n1` [Compound 143, 4-Fluoro-2-(1H-1,2,4-triazol-3-yl)aniline], the IC50 [1, 8] was 0.15 µM, the “LE [kcal/mol/HA]” value [1] was 0.72 kcal/mol/HA and the inhibition at 200 µM (hIDO1 [2]) was 86%. The “Tox. [%]” value (HEK 293 T cells [3]; compound 200 µM) was 18 (0.5) % and the IC50 (hIDO1 [4]) was 250 nM.

In the case of `O=C(Nc1ccc(Cl)cc1-c1nc[nH]n1)C1CCCC1` [Compound 151, N-(4-Chloro-2-(1H-1,2,4-triazol-3-yl)phenyl)cyclopentanecarboxamide], the IC50 [1, 8] is reported as > 100 µM, the “solubility (in words)” value [5] is reported as “strongly reduced solubilities” and the melting point is reported as 197 to 199 °C.

In the case of `CCOC(=O)c1[nH]nnc1-c1ccc(Cl)cc1` [Compound 65, reference compound], the IC50 [1, 8] is given as > 1000 µM and the IC50 (IDO1; [9]) is given as 390 nM.

In the case of `O=C(Nc1ccc(Cl)cc1-c1nc[nH]n1)c1ccccc1` [Compound 153, N-(4-Chloro-2-(1H-1,2,4-triazol-3-yl)phenyl)benzamide], the IC50 [1, 8] is reported as 9.4 µM and 9.3 µM, the inhibition at 50 µM (hIDO1 [2]) is reported as 87% and the “Tox. [%]” value (HEK 293 T cells [3]; compound 50 µM) is reported as 5.9 (8) %. The “solubility (in words)” value [5] was “low solubility; also recorded: less soluble”.

With `Clc1cc(Cl)c(-c2c[nH]nn2)cc1Cl` [Compound 52, 4–(2,4,5-Trichlorophenyl)-1,2,3-triazole] the IC50 [1, 8] was 33 µM, the “LE [kcal/mol/HA]” value [1] was 0.44 kcal/mol/HA and the inhibition at 50 µM (hIDO1 [2]) was 44%. The “Tox. [%]” value (HEK 293 T cells [3]; compound 50 µM) was 7.9 (1) %, the “solubility (in words)” value [5] was “less soluble” and the melting point was 190 to 192 °C.

In the case of `Clc1cccc(-c2cnn[nH]2)c1/C=C/C1CCCCC1` [Compound 42], the IC50 [1, 8] is given as 260 µM, the “LE [kcal/mol/HA]” value [1] is given as 0.24 kcal/mol/HA and the “Inh. [%]” value (hIDO1 [6]; [10]) is given as 56%. For the same compound, the “Tox. [%]” value (HEK 293 T cells [7]; [11]) was 5% and the IC50 (murine IDO2) was 110 µM.

With `O=C(Nc1ccc(Cl)cc1-c1nc[nH]n1)C1CCC1` [Compound 150, N-(4-Chloro-2-(1H-1,2,4-triazol-3-yl)phenyl)cyclobutanecarboxamide] the IC50 [1, 8] was > 100 µM, the “solubility (in words)” value [5] was “strongly reduced solubilities” and the melting point was 201 to 203 °C.

For `NC(=O)c1[nH]nnc1-c1ccc(Cl)cc1` [Compound 66, 4–(4-Chlorophenyl)-1H-1,2,3-triazole-5-carboxamide, reference compound], the IC50 [1, 8] is given as 800 µM, the “LE [kcal/mol/HA]” value [1] is given as 0.28 kcal/mol/HA and the IC50 (IDO1; [9]) is given as 620 nM.

For `Nc1ccc(Cl)cc1-c1nnc[nH]1` [Compound 11], the “LE [kcal/mol/HA]” value [1] is listed as 0.78 kcal/mol/HA, the “Inh. [%]” value (hIDO1 [6]; [12]) is listed as 100% and the “Tox. [%]” value (HEK 293 T cells [7]; [12]) is listed as 0%.

For `Clc1cccc(-c2cnn[nH]2)c1CCc1ccccc1` [Compound 13], the IC50 [1, 8] is given as 14 µM, the “LE [kcal/mol/HA]” value [1] is given as 0.33 kcal/mol/HA and the “Inh. [%]” value (hIDO1 [6]; [10]) is given as 76%. The “Tox. [%]” value (HEK 293 T cells [7]; [11]) was 71% and the “Tox. [%]” value (HEK 293 T cells [7]; ref 3 of Supporting Information (= main text ref 62), listed as MMG-0472) was 70%.

In the case of `O=C(Nc1ccc(Cl)cc1-c1nc[nH]n1)C1CC1` [Compound 149, N-(4-Chloro-2-(1H-1,2,4-triazol-3-yl)phenyl)cyclopropanecarboxamide], the IC50 [1, 8] is reported as 0.49 µM, the “LE [kcal/mol/HA]” value [1] is reported as 0.48 kcal/mol/HA and the inhibition at 50 µM (hIDO1 [2]) is reported as 100%. The “Tox. [%]” value (HEK 293 T cells [3]; compound 50 µM) was 19 (2) %, the “solubility (in words)” value [5] was “less soluble” and the melting point was 183 to 186 °C.

For `Nc1c(F)cccc1-c1nc[nH]n1` [Compound 140, 2-Fluoro-6-(1H-1,2,4-triazol-3-yl)aniline], the IC50 [1, 8] was 0.81 µM, the “LE [kcal/mol/HA]” value [1] was 0.64 kcal/mol/HA and the inhibition at 200 µM (hIDO1 [2]) was 100%. For the same compound, the “Tox. [%]” value (HEK 293 T cells [3]; compound 200 µM) was 17 (3) % and the IC50 (hIDO1 [4]) was 1200 nM.

With `CCCC(=O)Nc1ccc(Cl)cc1-c1nc[nH]n1` [Compound 148, N-(4-Chloro-2-(1H-1,2,4-triazol-3-yl)phenyl)butyramide] the IC50 [1, 8] was 24 µM and 25 µM, the “LE [kcal/mol/HA]” value [1] was 0.35 kcal/mol/HA and the inhibition at 50 µM (hIDO1 [2]) was 93%. The “Tox. [%]” value (HEK 293 T cells [3]; compound 50 µM) was 17 (2) %, the “solubility (in words)” value [5] was “less soluble” and the melting point was 156 to 158 °C.

For `Clc1ccc(Nc2cnn[nH]2)cc1` [Compound 10, reference compound], the IC50 [1, 8] is given as 56 µM, the “LE [kcal/mol/HA]” value [1] is given as 0.44 kcal/mol/HA and the IC50 (IDO1; read-out: IC50 value in the original publication) is given as 11300 nM.

For `Oc1ccc(Cl)cc1-c1cnn[nH]1` [Compound 9], the “Inh. [%]” value (hIDO1 [6]; [12]) is listed as 100%, the “Tox. [%]” value (HEK 293 T cells [7]; [12]) is listed as 4% and the “activities on TDO” value (TDO) is listed as > 100 µM.

For `Nc1ccccc1-c1nnc[nH]1` [Compound 139, 3–(2-aminophenyl)-1,2,4-triazole], the “LE [kcal/mol/HA]” value [1] is given as 0.65 kcal/mol/HA, the “Inh. [%]” value (hIDO1 [6]; [12]) is given as 100% and the IC50 (hIDO1 [6]; ref 1 of Supporting Information (Röhrig et al. 2021), read-out: IC50 [µM] (cellular)) is given as 4.6 µM. For the same compound, the “Tox. [%]” value (HEK 293 T cells [7]; [12]) was 0%.
